Source: patent publication US11566168B1, “Biocide blend for treating wellbores” (Halliburton Energy Services, Inc., priority 2021, dated 2023)

Columns and labels:
[1] = Properties that a biocide or blend possesses (Table 1)
Text: Some of the desirable properties can include maintaining biocidal activity in fluids having a high salinity or a high concentration of total dissolved solids, thermal stability, maintaining biocidal activity in the presence of ammonia or primary amines, quick kill, maintaining biocidal activity for extended periods of time—also known as persistence, and no interaction between the biocide and other additives having a negative charge (anions) within a treatment fluid.
The second property can be different. […] It is to be understood that unlike a triazine compound, glutaraldehyde is not a formaldehyde-releasing biocide.

[2] = system: sulfate reducing bacteria (SRB); assay: Elevated temperature study of biocides, kill testing of SRB; assay type: cell-based, indigenous sulfate reducing bacteria; settings: for biocidal effectiveness against SRB (FIG. 1): biocide-dosed water at 93° C. for 1 week, then 5 days at 32° C. with bacteria
Description: (§1) To facilitate a better understanding of the various embodiments, the following examples are given. […] Kill testing was performed at 32° C. (89.6° F.) at various contact times as follows. Bacterial populations were augmented prior to testing by culturing indigenous acid producing bacteria (APB) and sulfate reducing bacteria (SRB) in sample waters before starting kill studies. Prior to testing, cultures of APB and SRB from water samples were grown in culture medium. APB were grown in anaerobic phenol red dextrose medium (PRD). SRB were grown in American Petroleum Institute (API) medium without iron. The total dissolved solids (TDS) of SRB and APB media were selected to simulate wellbore fluids for some of the testing. Immediately preceding biocide testing, cultures were harvested by centrifugation. Cell pellets from mature bacteria were resuspended in sample water. The sample water, augmented with bacteria, was dispensed into 60 mL glass bottles and the appropriate amount of biocide was added. At the stated contact time of either 4 hours or 24 hours, biocide samples were taken for quantification. A standard serial dilution method into culture media was used to test biocide efficacy. Controls were serial diluted to theoretical extinction, while biocide-dosed samples were carried through 6 ten-fold dilutions as represented on the Y-axis of the figures. APB were quantitated by serial dilution into PRD medium. SRB were quantified by serial dilution into modified Postgate's medium B (MBP). Culture media were incubated at 32° C. (89.6° F.) and checked periodically. A change from red to yellow indicated a positive APB bottle. Formation of a black precipitate indicated a positive SRB bottle.
(§2) Elevated temperature studies of the biocides as shown in FIGS. 1 and 2 were conducted by adding 2 times the final biocide test concentration to 100 mL of sample water. The biocide-dosed sample was placed at 93° C. (199.4° F.) for 1 week or 2 weeks, FIG. 1 and FIG. 2, respectively. Following exposure to the elevated temperature, the heat-exposed biocide-dosed material was combined with an equal amount of sample water augmented with APB or SRB bacteria. The sample was then incubated for 5 days at 32° C. (89.6° F.). Following incubation, the sample material was serial diluted into PRD and MPB media for APB and SRB quantitation as discussed above. The biocides for FIGS. 1 and 2 are formaldehyde-releasing biocides. Tris(hydroxymethyl)nitromethane (“THNM”) and 4,4-dimethyloxazolidine (“DMO”) were obtained from DuPont®. Triazine was 1,3,5-triazine that is widely available commercially. Paraformaldehyde and […] (ratio 3:2) (“MBO”) was obtained from Vink chemicals. The formaldehyde-releasing biocides were in a concentration of 100, 150, 500, or 1,000 parts per million (“ppm”).

[3] = system: acid producing bacteria (APB); assay: Elevated temperature study of biocides, kill testing of APB; assay type: cell-based, indigenous acid producing bacteria; settings: for biocidal effectiveness against APB (FIG. 1): biocide-dosed water at 93° C. for 1 week, then 5 days at 32° C. with bacteria
Description: as §1, §2

[4] = at comparable or lower concentrations, 93° C. for 1 week
[5] = triazine at 100 ppm, 93° C. for 1 week

| Compound | Activity in ammonia [1] | High salinity activity [1] | No interaction with anions [1] | Quick kill [1] | Thermal stability [1] | performance compared with the other formaldehyde-releasing biocides, SRB (FIG. 2) ([2]; 150 ppm, 93° C. for 2 weeks) | effectiveness compared with the other formaldehyde-releasing biocides, SRB (FIG. 1) [2, 4] | biocidal effectiveness against SRB (FIG. 1) [2] | effectiveness compared with MBO, SRB (FIG. 1) [2, 5] | performance compared with the other formaldehyde-releasing biocides, APB (FIG. 2) ([3]; 150 ppm, 93° C. for 2 weeks) | effectiveness compared with the other formaldehyde-releasing biocides, APB (FIG. 1) [3, 4] | biocidal effectiveness against APB (FIG. 1) [3] | effectiveness compared with MBO, APB (FIG. 1) [3, 5] |
| --- | --- | --- | --- | --- | --- | --- | --- | --- | --- | --- | --- | --- | --- |
| 1,3,5-triazine | Yes | Yes | Yes | No | Yes | performed better | as effective or more effective | very effective | as effective as MBO at 1,000 ppm | performed better | as effective or more effective | effective | as effective as MBO at 1,000 ppm |
| CC1(C)COCN1 [DMO, 4,4-dimethyloxazolidine, reference compound] | – | – | – | – | – | – | – | not SRB | – | – | – | effective | – |
| O=CCCCC=O [Glutaraldehyde, glutaraldehyde, reference compound] | No | Yes | Yes | Yes | No | – | – | – | – | – | – | – | – |
